Literature values in US20030040459A1, “Cleaning compositions” (Unilever Home & Pesonal Care USA, priority 2001, published 2003).

Conditions: for Water Solubility (g/100 g): at 20° C.

Row | Compound | Water Solubility (g/100 g) | Water Solubility (grams/100 grams water) (grams of solid to form a saturated solution in 100 grams of deionised water at 20° C.)
1 | O=BO[O-].[Na+] [Sodium perborate anhydrous] | 3.7 | –
2 | NC(N)=O [Urea] | – | >100
3 | O=P(O)(O)OP(=O)(O)OP(=O)(O)O [Sodium tripolyphosphate anhydrous] | 15 | –
